Measurements taken from patent publication US20140243374A1, “Novel Sulfonamides” (The Brigham and Women's Hospital, Inc., priority 2011, published 2014).
Where “and” joins values, the source holds several entries; their conditions need not be identical. Equal values may be shown once. Where a name gives a salt, the structure may show the parent alone.

Columns and labels:
Type in all cases: cell-based
[1] = biological target: T1, γ-secretase (cleavage of APP, Aβ42) (Homo sapiens, UniProt P49768); test: Aβ (1-42) cellular assay (Aβ ELISA, HEK AP-GL-T1 6 cells); settings: cellular Aβ42 ELISA, 24 h compound treatment
T1 construct: endogenous in cells; host or cells: HEK AP-GL-T16 luciferase reporter cells (tetracycline-induced APP substrate)
Protocol: Aβ (1-42) Cellular Assay.
The following assay was used to determine the extent to which the compounds of interest inhibit the cleavage of APP in vivo. AβELISA is a commercial fluorometric kit from Biosource (Invitrogen 89344). Luciferase reporter HEK AP-GL-T1 6 cells were plated at 50,000 cells/well in 96 well plates in DMEM media containing 10% tetracyclin free […], 250 μg/mL zeocin, 200 μg/mL hygromycin, and 5 μg/mL blasticidin. Compounds were added 24 h after plating and APP processing is induced simultaneously by addition of tetracycline. Following a 24 h compound treatment, […] of conditioned cell media is collected, mixed with ELISA diluent buffer containing 2 mM AEBSF and 12 mM o-phenanthroline, and immediately frozen at −80° C. For the ELISA, the samples were brought to room temperature and spun at 5000 rpm for 5 min. Samples ([…]) are incubated in the ELISA plate with […] detection antibody on a shaker at room temperature for 3 h. Wells were then washed 4 times with wash buffer and 100 mL of secondary antibody are added and incubated at room temperature for 30 min. Wells were again washed 4 times with wash buffer and 100 mL of fluorescent substrate solution are added. After 30 minutes of incubation, fluorescent signals are determine on a Gemini reader at ex 460 nm and em 560 nm. The amount of Aβ levels in each sample was determined from a standard curve generated by known concentrations of Aβ peptide run simultaneously with the samples.

[2] = biological target: T2, γ-secretase (cleavage of Notch) (Homo sapiens, UniProt P49768); test: Notch cellular assay (luciferase reporter U2OS cells); settings: for IC50: U2OS luciferase reporter cells; for Notch Luc/Aβ42: ratio Notch luciferase IC50 to Aβ42 IC50
T2 construct: endogenous in cells; host or cells: U2OS luciferase reporter cells with Tet-on Notch
Protocol: This assay was used to determine if the compounds of interest inhibit the cleavage of Notch by γ-secretase in cells. A U2OS cell line in which the luciferase expression is adjusted by active Notch was used in this assay Notch expression is adjusted using Tet-on promoter. Luciferase reporter U2OS cells are plated at 1000 cells/well in 96 well plates in DMEM containing 100 μg/mL hygromycin, 15 μg/mL blasticidin and 1 μg/mL Tetracycline. Compounds were added 24 h after plating and the cells are lysed 6 days after adding compounds. Luciferase expression was performed using Steady-Glo Luciferase Assay System (Promega).

[3] = biological target: T3, γ-secretase (Notch cleavage activity) (Homo sapiens, UniProt P49768); test: Cleaved Notch1 Sandwich ELISA (SUP-T1 cell line); settings: for IC50: SUP-T1 cells, 16 h; for Notch Elisa/Aβ42: ratio Notch Elisa IC50 to Aβ42 IC50
T3 construct: endogenous in cells; host or cells: SUP-T1 cells
Protocol: Cleaved Notch1 Sandwich ELISA.
This assay was used to determine if the compounds of interest inhibit the Notch cleavage activity of γ-secretase in SUP-T1 cell line, which endogenously expresses a truncated Notch receptor fragment that is a viable gamma-secretase substrate. The base medium for this cell line is ATCC-formulated RPMI-1640 Medium with fetal bovine serum to a final concentration of 10%. Prepare dilution of SUP-T1 cells in complete growth medium to 1.0×10^6 cells/mL, seed 1.5 mL per well of each cell dilution into a 6-well plate. Collect cells treated with serial diluted compounds in DMSO after 16 h, then using equal amount of protein isolated from samples to measure Notch intracellular cleavage by PathScan® Sandwich ELISA Kit (Cell Signaling Tech 7194S).

Row | Structure (SMILES) | IC50 [1] | IC50 [2] [nM] | Notch Luc/Aβ42 [2] | Notch Luc/Aβ42 ([2]; listed as 59/1231B) | IC50 [3] | Notch Elisa/Aβ42 ([3]; listed as 59/1231B) | Notch Elisa/Aβ42 [3] | Notch Luc/Aβ42 ([2]; listed as 14/1136) | Notch Elisa/Aβ42 ([3]; listed as 53/1227D)
1 | CC1CCCCC1N(Cc1ccc(C(=O)NCC(F)(F)F)cc1)S(=O)(=O)c1ccc(Cl)cc1 (stereo not shown) [Example 54, 4-((4-Chloro-N-(2-methylcyclohexyl)phenylsulfonamido)methyl)-N-(2,2,2-trifluoroethyl)benzamide] | 2.61 nM | 574 | 220 | – | – | – | – | – | –
2 | CC1CCCCC1N(Cc1ccc(C(=O)NCCC(=O)O)cc1)S(=O)(=O)c1ccc(Cl)cc1 (stereo not shown) [Example 36, 3-(4-((4-Chloro-N-(2-methylcyclohexyl)phenylsulfonamido)methyl)benzamido)propanoic acid] | 80.7 nM | 4580 | 57 | – | – | – | – | – | –
3 | O=C(O)c1ccc(CN(C2CCCCC2F)S(=O)(=O)c2ccc(Cl)cc2)cc1 (single isomer, unassigned) [Example 59, 4-((4-Chloro-N-(2-fluorocyclohexyl)phenylsulfonamido)methyl)benzoic acid] | 60.7 nM and 195 nM and 101 nM | 9400 | – | 79 | 2930 nM | 25 | – | – | –
4 | CC1CCCCC1N(Cc1ccc(C(=O)N[C@H](C)CO)cc1)S(=O)(=O)c1ccc(Cl)cc1 (stereo partly drawn) [Example 4, 4-((4-Chloro-N-(2-methylcyclohexyl)phenylsulfonamido)methyl)-N-((R)-1-hydroxypropan-2-yl)benzamide] | 0.87 nM and 0.65 nM and 0.89 nM | – | 2950 | – | 180 nM and 120 nM | – | 188 | – | –
5 | CC1CCCCC1N(Cc1ccc(C(=O)NCCN(C)C)cc1)S(=O)(=O)c1ccc(Cl)cc1 (stereo not shown) [Example 40, 4-((4-Chloro-N-(2-methylcyclohexyl)phenylsulfonamido)methyl)-N-(2-(dimethylamino)ethyl)benzamide] | 2.56 nM | 3030 | – | – | – | – | – | – | –
6 | COC(=O)c1ccc(CN(C2CCCCC2C)S(=O)(=O)c2ccc(Cl)cc2)cc1 (stereo not shown) [Example 2, Methyl 4-((4-chloro-N-(2-methylcyclohexyl)phenylsulfonamido)methyl)benzoate] | 3.4 nM | 3000 | – | – | – | – | – | – | –
7 | CC1CCCCC1N(Cc1ccc(C(=O)NCCC(F)(F)F)cc1)S(=O)(=O)c1ccc(Cl)cc1 (stereo not shown) [Example 55, 4-((4-Chloro-N-(2-methylcyclohexyl)phenylsulfonamido)methyl)-N-(3,3,3 trifluoropropyl)benzamide] | 4.3 nM | 1100 | 256 | – | – | – | – | – | –
8 | CC[C@@H](C1CCCC1)N(Cc1ccc(C(=O)OC)cc1)S(=O)(=O)c1ccc(Cl)cc1 [Example 21, (S)-Methyl 4-((4-chloro-N-(1-cyclopentylpropyl)phenylsulfonamido)methyl)benzoate] | 24 nM | 13000 | 542 | – | – | – | – | – | –
9 | CC1CCCCC1N(Cc1ccc(C(=O)NC[C@H](C)O)cc1)S(=O)(=O)c1ccc(Cl)cc1 (stereo partly drawn) [Example 47, 4-((4-Chloro-N-(2-methylcyclohexyl)phenylsulfonamido)methyl)-N—((S)-2-hydroxypropyl)benzamide] | 0.873 nM | 690 | 791 | – | 350 nM | – | 401 | – | –
10 | C[C@H](CO)NC(=O)c1ccc(CN(C2CCCCC2F)S(=O)(=O)c2ccc(Cl)cc2)cc1 (stereo partly drawn) [Example 60, 4-((4-Chloro-N-(2-fluorocyclohexyl)phenylsulfonamido)methyl)-N—((R)-1-hydroxypropan-2-yl)benzamide] | 4.58 nM and 7 nM | – | – | – | 1550 nM | – | 305 | – | –
11 | COC[C@@H](C)NC(=O)c1ccc(CN(C2CCCCC2C)S(=O)(=O)c2ccc(Cl)cc2)cc1 (stereo partly drawn) [Example 14, 4-((4-Chloro-N-(2-methylcyclohexyl)phenylsulfonamido)methyl)-N-((R)-1-methoxypropan-2-yl)benzamide] | 0.7 nM | 303 | – | – | 710 nM | – | 1014 | 433 | –
12 | COC(=O)c1ccc(CN([C@@H]2CCCC[C@H]2F)S(=O)(=O)c2ccc(Cl)cc2)cc1 [Example 83, Methyl 4-((4-chloro-N-((1R,2R)-2-fluorocyclohexyl)phenylsulfonamido)methyl)benzoate] | 44.3 nM | – | – | – | 1570 nM | – | 35 | – | –
13 | CC1CCCC(N(Cc2ccc(C(=O)N[C@H](C)CO)cc2)S(=O)(=O)c2ccc(Cl)cc2)C1 (stereo partly drawn) [Example 50, 4-((4-Chloro-N-(3-methylcyclohexyl)phenylsulfonamido)methyl)-N—((R)-1-hydroxypropan-2-yl)benzamide] | 7.32 nM | 10600 | 1456 | – | 2160 nM | – | 309 | – | –
14 | CC1CCCCC1N(Cc1ccc(C(=O)NCCN(C)C)cc1)S(=O)(=O)c1ccc(Cl)cc1 (stereo not shown) [Example 41, 4-((4-Chloro-N-(2-methylcyclohexyl)phenylsulfonamido)methyl)-N-(2-(dimethylamino)ethyl)benzamide hydrochloride] | 5.8 nM and 10.9 nM | – | – | – | 675 nM and 850 nM | – | 91 | – | –
15 | C[C@H](CO)NC(=O)c1ccc(CN(C2CCCCC2F)S(=O)(=O)c2ccc(Cl)nc2)cc1 (stereo partly drawn) [Example 65, 4-((6-Chloro-N-(2-fluorocyclohexyl)pyridine-3-sulfonamido)methyl)-N—((R)-1-hydroxypropan-2-yl)benzamide] | 13.7 nM | – | – | – | 1150 nM | – | 84 | – | –
16 | O=C(O)c1ccc(CN(C2CCCC(C(F)(F)F)C2)S(=O)(=O)c2ccc(Cl)cc2)cc1 (stereo not shown) [Example 51, 4-((4-Chloro-N-(3-(trifluoromethyl)cyclohexyl)phenylsulfonamido)methyl)benzoic acid] | 62.2 nM | 3230 | 52 | – | – | – | – | – | –
17 | CCN(CCN1CCCC1)C(=O)c1ccc(CN(C2CCCCC2C)S(=O)(=O)c2ccc(Cl)cc2)cc1 (stereo not shown) [Example 39, 4-((4-Chloro-N-(2-methylcyclohexyl)phenylsulfonamido)methyl)-N-ethyl-N-(2-(pyrrolidin-1-yl)ethyl)benzamide] | 40.7 nM and 77.4 nM | – | – | – | 2260 nM | – | 38 | – | –
18 | CC1CCCCC1N(Cc1ccc(C(=O)NCCN2CCCC2)cc1)S(=O)(=O)c1ccc(Cl)cc1 (stereo not shown) [Example 38, 4-((4-Chloro-N-(2-methylcyclohexyl)phenylsulfonamido)methyl)-N-(2-(pyrrolidin-1-yl)ethyl)benzamide] | 8.3 nM and 12.8 nM | – | – | – | 667 nM | – | 64 | – | –
19 | O=C(O)c1ccc(CN(C2CCCCC2C(F)(F)F)S(=O)(=O)c2ccc(Cl)cc2)cc1 (stereo not shown) [Example 68, 4-((4-Chloro-N-(2-(trifluoromethyl)cyclohexyl)phenylsulfonamido)methyl)benzoic acid] | 25.5 nM | – | – | – | 830 nM | – | 33 | – | –
20 | O=C(O)c1ccc(CN(C2CCCC(C(F)(F)F)C2)S(=O)(=O)c2ccc(Cl)cc2)cc1 (single isomer, unassigned) [Example 53, 4-((4-Chloro-N-(3-(trifluoromethyl)cyclohexyl)phenylsulfonamido)methyl)benzoic acid] | 1190 nM | – | – | – | 34800 nM | – | – | – | 29
21 | CN(C)CCNC(=O)c1ccc(CN(C2CCCCC2F)S(=O)(=O)c2ccc(Cl)cc2)cc1.Cl (stereo not shown) [Example 75, 4-((4-Chloro-N-(2-fluorocyclohexyl)phenylsulfonamido)methyl)-N-(2-(dimethylamino)ethyl)benzamide hydrochloride] | 32.8 nM and 70.7 nM | – | – | – | 4140 nM | – | 80 | – | –
